The source of these data is patent US20240409542A1, “NOVEL COMPOUNDS” (Sitryx Therapeutics Limited, priority 2021, published 2024).

Values after ≈ are worked out from the molar mass of the structure shown. Marks after values point to notes of the source that are not given here.

The target of one data set is recombinant human PKM2 (Homo sapiens (Human), UniProt P14618). Briefly: Human PKM2 activation assay (Kinase-Glo Plus luminescence). In kind it is biochemical. The note with it: for EC50: activation of recombinant human PKM2, 4-parameter logistic fit, read-out: hPKM2 EC50; for Emax: read-out: hPKM2 Emax (%). Here is the method: Compound activation of recombinant human PKM2 pyruvate kinase activity was determined by biochemical assay. N-terminal His-tagged hPKM2 was sourced from R&D Systems and its substrates phosphoenolpyruvate (PEP) and ADP from Sigma-Aldrich and 2BScientific Ltd, respectively. The Kinase-Glo® Plus luminescence assay was from Promega. All other reagents were from Sigma-Aldrich. Test Compounds were prepared as 10 mM DMSO stocks and dilution series prepared in DMSO for direct dilution into Assay Buffer comprising 50 mM imidazole, 50 mM KCl, 7 mM MgCl2, 0.01% Tween20, 0.05% BSA (pH 7.2).
recombinant human PKM2, sequence (P14618 whole entry): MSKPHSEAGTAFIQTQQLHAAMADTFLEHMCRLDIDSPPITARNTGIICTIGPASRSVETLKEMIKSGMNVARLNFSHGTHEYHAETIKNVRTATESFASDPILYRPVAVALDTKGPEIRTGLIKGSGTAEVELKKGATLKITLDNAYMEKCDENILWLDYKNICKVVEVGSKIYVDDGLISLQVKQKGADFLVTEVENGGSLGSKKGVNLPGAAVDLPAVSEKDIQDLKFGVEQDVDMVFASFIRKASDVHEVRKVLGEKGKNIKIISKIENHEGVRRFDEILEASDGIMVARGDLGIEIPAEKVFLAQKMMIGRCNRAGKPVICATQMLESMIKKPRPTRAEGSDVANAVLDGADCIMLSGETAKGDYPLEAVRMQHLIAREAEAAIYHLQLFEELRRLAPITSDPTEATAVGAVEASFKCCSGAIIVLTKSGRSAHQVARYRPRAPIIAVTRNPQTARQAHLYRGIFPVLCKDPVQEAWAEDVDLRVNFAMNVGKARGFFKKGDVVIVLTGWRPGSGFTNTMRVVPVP
Human PKM2 was diluted into Assay Buffer comprising 50 mM imidazole, 50 mM KCl, 7 mM MgCl2, 0.01% Tween20, 0.05% BSA (pH 7.2) to a final concentration of 5 pM. Enzyme-Assay Buffer mix was dispensed into a 384-well shallow-well white-walled plate (PerkinElmer) and Test Compounds added by acoustic dispense (Echo®, Labcyte Inc.).
After 60 minutes' incubation on an orbital shaker (300 rpm, 26° C.), enzyme activity was quantified by the luminescent detection of generated ATP. Kinase-Glo® Plus reagent was added to each well and the plates incubated for a further 15 minutes on an orbital shaker in the dark (300 rpm, 26° C.) before luminescence measurement on a plate reader (PHERAstar® FSX, BMG Labtech).
EC50 and Emax values were determined from 4-parameter logistic fits of compound concentration-response curves.

The next data set concerns A549 cells. Briefly: A549 proliferation assay in low-serine medium (CellTiter-Glo). The following applies: Homo sapiens, 72 h, 3 days, low-serine medium (20 μM L-serine). Type of data set: cell-based. Here is the method: The effect of compounds of Formula (I) on A549 cell proliferation in low-serine medium was assessed using a luminescence assay of viable cell number (CellTiter-Glo® 2.0, Promega) duplexed with a fluorescent cytotoxicity assessment (CellTox™ Green, Promega). Cell culture reagents were from ThermoFisher unless specified otherwise. Assay reagents were from Sigma-Aldrich unless specified otherwise. Test Compounds were prepared as 10 mM DMSO stocks and dilution series prepared in DMSO for direct dilution into culture medium.
Cells were passaged every 3-4 days at 80-90% confluence. The cell monolayer was washed twice with room-temperature Ca^2+/Mg-free PBS and 4 ml room-temperature trypsin-EDTA added to the flask. After 5 minutes' incubation (37° C., 5% CO2) to detach cells, trypsin was quenched with 13 ml warmed complete growth medium and the cells harvested and diluted to 2.4×10^4 cells/ml for dispensing into 384-well clear-bottom black-walled plates (600 cells/well).
Following overnight incubation, growth medium was aspirated from each well and the cells washed twice with Assay Medium comprising Basal Medium Eagle supplemented with 3% heat-inactivated dialysed FBS plus 2 mM L-glutamine plus 20 μM L-serine (Sigma-Aldrich). After aspiration of the final wash medium, Assay Medium containing Test Compound was added to each well. DMSO vehicle controls were included on each plate.
Cells were incubated for 3 days in a humidified incubator (37° C., 5% CO2) at which point CellTox™ Green and CellTiter-Glo® reagents were prepared according to the manufacturer's instructions. Triton-X was added to HIGH wells for cytotoxicity determination and the plate incubated for 30 minutes (20° C., ambient humidity and pCO2). CellTox™ Green reagent was added to each well and the plate covered, placed on an orbital shaker @450 rpm for 2 minutes, and incubated in the dark for 15 minutes (20° C., ambient humidity and pCO2). Endpoint fluorescence was measured using a plate reader (PHERAstar® FSX, BMG Labtech).
Following cytotoxicity determination, CellTiter-Glo® reagent was added to each well and the plate placed on an orbital shaker @450 rpm for 2 minutes to lyse cells. Plates were incubated in the dark for 15-30 minutes (20° C., ambient humidity and pCO2) prior to endpoint luminescence measurement (PHERAstar® FSX, BMG Labtech).
Proliferation was calculated by normalizing luminescence signals to LOW controls obtained from a parallel plate processed at the time of Test Compound challenge and HIGH (DMSO vehicle) wells from the compound plate. IC50 values were determined from a 4-parameter logistic fit of compound concentration-response curves.

Data set [1] in a line: Kinetic aqueous solubility. The note with it: PBS pH 7.4, 200 μM (2% DMSO), RT; for Kinetic solubility (Ksol); (μg/ml): 1.5 h; for solubility kinetic at 1.5 h: phosphate buffered saline (PBS) pH 7.4, pH 7.4, aqueous buffer, kinetic from dmso stock, Kinetic solubility (Ksol), (μg/ml).
Method: Phosphate buffered saline (PBS) pH 7.4 was prepared using PBS tablets as per the manufacturer's instructions. Compounds and marker stocks are prepared at 10 mM in DMSO.
Compounds were incubated at 200 μM (2% DMSO) in Millipore—MSS LB PC 10 or Porvair—ref: 36004 plates in the presence of the prepared PBS pH 7.4 solution for 1.5 h, at RT, with gentle shaking. […] The samples were then analysed in a 96 well UV Star analysis plate on a plate reader from 220 nm to 500 nm at 10 nm increments.
The concentration of the samples was calculated against the standard curves.
Another data set addresses recombinant human PKLR (Homo sapiens (Human), UniProt P30613). As to the kind of experiment: Human PKLR activation assay (Kinase-Glo Plus luminescence). The note with it: for Emax: read-out: hPKLR Emax (%).

recombinant human PKLR, sequence (P30613 whole entry): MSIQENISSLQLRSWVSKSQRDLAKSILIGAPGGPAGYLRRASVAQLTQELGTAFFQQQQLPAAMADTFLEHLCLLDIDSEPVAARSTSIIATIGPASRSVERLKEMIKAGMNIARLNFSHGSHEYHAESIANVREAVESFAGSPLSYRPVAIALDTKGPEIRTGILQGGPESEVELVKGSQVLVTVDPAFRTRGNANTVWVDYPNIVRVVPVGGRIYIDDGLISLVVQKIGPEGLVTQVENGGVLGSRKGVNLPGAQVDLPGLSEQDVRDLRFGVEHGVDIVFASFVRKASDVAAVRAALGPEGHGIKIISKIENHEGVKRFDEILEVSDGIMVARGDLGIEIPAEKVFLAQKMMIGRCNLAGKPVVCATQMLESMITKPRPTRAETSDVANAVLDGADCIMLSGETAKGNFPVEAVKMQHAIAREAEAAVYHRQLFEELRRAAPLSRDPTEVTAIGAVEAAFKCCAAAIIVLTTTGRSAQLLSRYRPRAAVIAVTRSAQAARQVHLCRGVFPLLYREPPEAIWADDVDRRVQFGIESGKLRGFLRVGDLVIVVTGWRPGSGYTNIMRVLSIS
Method for recombinant human PKLR: Compound activation of recombinant human PKLR pyruvate kinase activity was determined by biochemical assay. N-terminal His-tagged enzyme was sourced from R&D Systems and its substrates phosphoenolpyruvate (PEP) and ADP from Sigma-Aldrich and 2BScientific Ltd, respectively. The Kinase-Glo® Plus luminescence assay was from Promega. All other reagents were from Sigma-Aldrich. Test Compounds were prepared as 10 mM DMSO stocks and dilution series prepared in DMSO for direct dilution into Assay Buffer comprising 50 mM imidazole, 50 mM KCl, 7 mM MgCl2, 0.01% Tween20, 0.05% BSA (pH 7.2).
Human PKLR was diluted into Assay Buffer to a final concentration of 5 pM. Enzyme-Assay Buffer mix was dispensed into 384-well shallow-well white-walled plates and Test Compounds added by acoustic dispense (Echo®, Labcyte Inc).

For `CC(O)c1cccc(Cn2ncc3c4c(n(C)c3c2=O)CN(S(C)(=O)=O)CC4)c1` (stereo not drawn) [Example 3, 3-(3-(1-hydroxyethyl)benzyl)-5-methyl-7-(methylsulfonyl)-3,5,6,7,8,9-hexahydro-4H-pyrido[4′,3′:4,5]pyrrolo[2,3-d]pyridazin-4-one], on recombinant human PKM2, the EC50 came to 303 nM and the Emax was 81.4%. The same compound came in with an IC50 in the data set with A549 cells of 10.5 nM. For the same compound, in data set [1], the “Kinetic solubility (Ksol); (μg/ml)” value is recorded as 17.91* μg/ml and the kinetic solubility at 1.5 h was found to be 19 µg/mL (≈ 45.6 µM). Besides, at recombinant human PKLR, the EC50 lay within 60 to 320 nM and the Emax was in the range of 100 to 117%.

In the case of `Cn1c2c(c3cnn(Cc4cccc(N)c4)c(=O)c31)CCN(S(=O)(=O)C1CC1)C2` [Example 9, 3-(3-aminobenzyl)-7-(cyclopropylsulfonyl)-5-methyl-3,5,6,7,8,9-hexahydro-4H-pyrido[4′,3′:4,5]pyrrolo[2,3-d]pyridazin-4-one], at recombinant human PKM2, the EC50 was 1770 nM and the Emax stood at 47.3%. In the data set on A549 cells, this compound gave an IC50 of 25.8 nM. Besides, the solubility (kinetic) at 1.5 h in data set [1] is 43.1 µg/mL (≈ 104 µM). Besides, on recombinant human PKLR, the EC50 was above 320 nM and the Emax was below 90%.

On to `Cn1c2c(c3cnn(Cc4ccc5c(c4)CCO5)c(=O)c31)CCN(S(C)(=O)=O)C2` [Example 1, 3-((2,3-dihydrobenzofuran-5-yl)methyl)-5-methyl-7-(methylsulfonyl)-3,5,6,7,8,9-hexahydro-4H-pyrido[4′,3′:4,5]pyrrolo[2,3-d]pyridazin-4-one], for which, at recombinant human PKM2, the concentration giving a half-maximal response (EC50) is 180 nM and the Emax came out at 86.9%. Besides, the IC50 in the data set with A549 cells came to 1.6 nM. Also, in data set [1], the “Kinetic solubility (Ksol); (μg/ml)” value was 12.85* μg/ml and the kinetic solubility at 1.5 h was found to be 13.9 µg/mL (≈ 33.5 µM). In addition, at recombinant human PKLR, the EC50 is 60 to 320 nM and the Emax was in the range of 90 to 100%.

Take `COc1ccc(S(=O)(=O)N2CCc3c(n(C)c4c(=O)n(Cc5ccsc5C(N)=O)ncc34)C2)cc1` [Example 22, 3-((7-((4-methoxyphenyl)sulfonyl)-5-methyl-4-oxo-4,5,6,7,8,9-hexahydro-3H-pyrido[4′,3′:4,5]pyrrolo[2,3-d]pyridazin-3-yl)methyl)thiophene-2-carboxamide]: on recombinant human PKM2, the EC50 was determined as 385 nM and the Emax turned out to be 76.8%. Besides, the solubility (kinetic) at 1.5 h in data set [1] was determined as 2.53 µg/mL (≈ 4.93 µM).

Turning to `Cn1c2c(c3cnn(Cc4cccc5[nH]ncc45)c(=O)c31)CCN(S(C)(=O)=O)C2` [Example 32, 3-((1H-indazol-4-yl)methyl)-5-methyl-7-(methylsulfonyl)-3,5,6,7,8,9-hexahydro-4H-pyrido[4′,3′:4,5]pyrrolo[2,3-d]pyridazin-4-one], at recombinant human PKM2, the EC50 amounted to 365 nM and the Emax was 94.6%. Moreover, the kinetic solubility at 1.5 h in data set [1] is 16.2 µg/mL (≈ 39.2 µM).

Take `Cn1c2c(c3cnn(Cc4csc5ccncc45)c(=O)c31)CCN(S(C)(=O)=O)C2` [Example 34, 5-methyl-7-(methylsulfonyl)-3-(thieno[3,2-c]pyridin-3-ylmethyl)-3,5,6,7,8,9-hexahydro-4H-pyrido[4′,3′:4,5]pyrrolo[2,3-d]pyridazin-4-one]: at recombinant human PKM2, the EC50 came to 440 nM and the Emax was 82.6%. For the same compound, the solubility (kinetic) at 1.5 h in data set [1] is 1.8 µg/mL (≈ 4.19 µM).

Turning to `Cn1c2c(c3cnn(Cc4c[nH]c5cnccc45)c(=O)c31)CCN(S(C)(=O)=O)C2` [Example 36, 3-((1H-pyrrolo[2,3-c]pyridin-3-yl)methyl)-5-methyl-7-(methylsulfonyl)-3,5,6,7,8,9-hexahydro-4H-pyrido[4′,3′:4,5]pyrrolo[2,3-d]pyridazin-4-one], on recombinant human PKM2, the EC50 is 71 nM and the Emax turned out to be 100%. Moreover, the solubility (kinetic) at 1.5 h in data set [1] is above 82.5 µg/mL. In addition, on recombinant human PKLR, the EC50 lay in the range of 43.5 to 60 nM and the Emax was 90 to 100%.

With `Cn1c2c(c3cnn(Cc4n[nH]cc4C(N)=O)c(=O)c31)CCN(S(C)(=O)=O)C2` [Example 17, 3-((5-methyl-7-(methylsulfonyl)-4-oxo-4,5,6,7,8,9-hexahydro-3H-pyrido [4′,3′:4,5]pyrrolo[2,3-d]pyridazin-3-yl)methyl)-1H-pyrazole-4-carboxamide], at recombinant human PKM2, the EC50 is 901 nM and the Emax came out at 98.8%. Further, in data set [1], the kinetic solubility at 1.5 h stood at 73.1 µg/mL (≈ 180 µM).

Regarding `Cn1c2c(c3cnn(Cc4ccsc4C(N)=O)c(=O)c31)CCN(S(C)(=O)=O)C2` [Example 14, 3-((5-methyl-7-(methylsulfonyl)-4-oxo-4,5,6,7,8,9-hexahydro-3H-pyrido [4′,3′:4,5]pyrrolo[2,3-d]pyridazin-3-yl)methyl)thiophene-2-carboxamide], at recombinant human PKM2, the EC50 was found to be 512 nM and the Emax was determined as 102%. The compound further yielded a solubility (kinetic) at 1.5 h in data set [1] of 41.3 µg/mL (≈ 98.1 µM).

Take `Cn1c2c(c3cnn(Cc4cccc(S(N)(=O)=O)c4)c(=O)c31)CCN(S(C)(=O)=O)C2` [Example 18, 3-((5-methyl-7-(methylsulfonyl)-4-oxo-4,5,6,7,8,9-hexahydro-3H-pyrido [4′,3′:4,5]pyrrolo[2,3-d]pyridazin-3-yl)methyl)benzenesulfonamide]: at recombinant human PKM2, the EC50 turned out to be 394 nM and the Emax was 58.7%. In addition, in data set [1], the solubility (kinetic) at 1.5 h was found to be 18.3 µg/mL (≈ 40.5 µM).

As to `Cn1c2c(c3cnn(Cc4ccsc4CO)c(=O)c31)CCN(S(C)(=O)=O)C2` [Example 13, 3-((2-(hydroxymethyl)thiophen-3-yl)methyl)-5-methyl-7-(methylsulfonyl)-3,5,6,7,8,9-hexahydro-4H-pyrido[4′,3′:4,5]pyrrolo[2,3-d]pyridazin-4-one], at recombinant human PKM2, the EC50 was 702 nM and the Emax worked out at 88.5%. This compound displayed a solubility (kinetic) at 1.5 h in data set [1] of 38 µg/mL (≈ 92.9 µM).

As to `Cn1c2c(c3cnn(Cc4cc[nH]n4)c(=O)c31)CCN(S(C)(=O)=O)C2` [Example 4, 3-((1H-pyrazol-3-yl)methyl)-5-methyl-7-(methylsulfonyl)-3,5,6,7,8,9-hexahydro-4H-pyrido[4′,3′:4,5]pyrrolo[2,3-d]pyridazin-4-one], at recombinant human PKM2, the EC50 was found to be 1140 nM and the Emax turned out to be 89.8%. This compound showed a solubility (kinetic) at 1.5 h in data set [1] of 42 µg/mL (≈ 116 µM). Further, at recombinant human PKLR, the EC50 was 60 to 320 nM and the Emax lay within 100 to 117%.

On to `COc1ccc(Cn2ncc3c4c(n(C)c3c2=O)CN(S(=O)(=O)c2ccccc2)CC4)c(F)c1` [Example 21, 3-(2-fluoro-4-methoxybenzyl)-5-methyl-7-(phenylsulfonyl)-3,5,6,7,8,9-hexahydro-4H-pyrido[4′,3′:4,5]pyrrolo[2,3-d]pyridazin-4-one], for which, at recombinant human PKM2, the EC50 came out at 986 nM and the Emax is 71.4%. Besides, in data set [1], the kinetic solubility at 1.5 h came out at 1.04 µg/mL (≈ 2.16 µM).

As for `Cn1c2c(c3cnn(Cc4c[nH]c5ccccc45)c(=O)c31)CCN(S(C)(=O)=O)C2` [Example 15, 3-((1H-indol-3-yl)methyl)-5-methyl-7-(methylsulfonyl)-3,5,6,7,8,9-hexahydro-4H-pyrido[4′,3′:4,5]pyrrolo[2,3-d]pyridazin-4-one], on recombinant human PKM2, the EC50 worked out at 99 nM and the Emax stood at 99.9%. The compound also displayed a solubility (kinetic) at 1.5 h in data set [1] of 2.49 µg/mL (≈ 6.05 µM).
